The values below are quoted from earlier work in patent US20190008798A1, “Coenzyme Q10 in the preventive treatment of type 2 diabetes” (Pharma Nord ApS, priority 2017, published 2019).

One data set concerns adipose tissue. As to conditions: mice.

Molecules are shown by their SMILES.

`COC1=C(OC)C(=O)C(C/C=C(\C)CC/C=C(\C)CC/C=C(\C)CC/C=C(\C)CC/C=C(\C)CC/C=C(\C)CC/C=C(\C)CC/C=C(\C)CC/C=C(\C)CCC=C(C)C)=C(C)C1=O` [Q10, ubidecarenone]: the “mortality in subjects with cardiac failure” value is on record as “decrease mortality”. Moreover, the “insulin sensitivity in the adipose tissue” value in the data set with adipose tissue is given as “improves insulin sensitivity”.
